ChEMBL document CHEMBL1145141, “New 2-bromomethyl-8-substituted-benzo[c]chromen-6-ones. Synthesis and biological properties” (Bioorg Med Chem Lett, 2005)
pIC50: −log10 of the molar value. “And” between values parts separate entries of the source, which are not always exact repeats. Equal entries are not always repeated.

Columns and labels:
[1] = Inhibitory concentration against Alpha-chymotrypsin
[2] = target: Human immunodeficiency virus type 1 protease (Human immunodeficiency virus 1, UniProt Q72874); assay: Inhibitory concentration against HIV aspartyl protease
[3] = target: T1, Nitric oxide synthase 3 (Homo sapiens) (UniProt P29474); assay: Inhibitory activity against Endothelial nitric oxide synthase
T1 sequence (whole entry): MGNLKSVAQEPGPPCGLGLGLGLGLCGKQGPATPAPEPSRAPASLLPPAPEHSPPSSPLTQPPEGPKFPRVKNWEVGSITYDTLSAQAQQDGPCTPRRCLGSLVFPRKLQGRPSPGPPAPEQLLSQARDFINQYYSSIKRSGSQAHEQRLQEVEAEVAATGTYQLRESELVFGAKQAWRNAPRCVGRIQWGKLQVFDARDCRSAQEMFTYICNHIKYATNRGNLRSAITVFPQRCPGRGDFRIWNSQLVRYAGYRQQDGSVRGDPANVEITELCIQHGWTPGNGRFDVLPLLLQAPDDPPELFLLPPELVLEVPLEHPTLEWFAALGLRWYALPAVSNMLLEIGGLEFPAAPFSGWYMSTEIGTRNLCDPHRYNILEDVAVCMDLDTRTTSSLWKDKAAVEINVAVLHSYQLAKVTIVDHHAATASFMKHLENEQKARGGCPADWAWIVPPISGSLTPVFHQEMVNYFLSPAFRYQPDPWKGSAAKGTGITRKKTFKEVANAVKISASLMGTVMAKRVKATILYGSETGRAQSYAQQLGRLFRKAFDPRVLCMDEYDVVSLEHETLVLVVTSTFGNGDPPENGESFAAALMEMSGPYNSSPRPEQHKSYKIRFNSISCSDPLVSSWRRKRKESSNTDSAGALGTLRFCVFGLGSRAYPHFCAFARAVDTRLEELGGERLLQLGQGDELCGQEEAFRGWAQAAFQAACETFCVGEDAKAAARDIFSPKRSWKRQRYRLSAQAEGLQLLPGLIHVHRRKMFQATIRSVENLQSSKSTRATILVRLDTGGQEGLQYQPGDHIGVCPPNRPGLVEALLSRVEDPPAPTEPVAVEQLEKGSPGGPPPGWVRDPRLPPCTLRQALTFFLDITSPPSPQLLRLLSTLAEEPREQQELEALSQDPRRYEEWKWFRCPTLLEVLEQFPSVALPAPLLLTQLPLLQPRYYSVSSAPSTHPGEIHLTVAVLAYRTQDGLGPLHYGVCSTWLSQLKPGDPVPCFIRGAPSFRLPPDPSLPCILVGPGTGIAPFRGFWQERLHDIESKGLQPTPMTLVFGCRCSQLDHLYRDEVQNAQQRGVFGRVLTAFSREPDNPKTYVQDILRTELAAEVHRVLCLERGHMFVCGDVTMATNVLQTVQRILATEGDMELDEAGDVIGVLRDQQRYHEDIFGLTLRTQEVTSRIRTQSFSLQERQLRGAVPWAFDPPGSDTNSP

[4] = target: T2, Chymotrypsin-C (Homo sapiens, UniProt Q99895); assay: Inhibitory concentration against Alpha-chymotrypsin; In active at 100 uM
T2 sequence (Q99895 whole entry): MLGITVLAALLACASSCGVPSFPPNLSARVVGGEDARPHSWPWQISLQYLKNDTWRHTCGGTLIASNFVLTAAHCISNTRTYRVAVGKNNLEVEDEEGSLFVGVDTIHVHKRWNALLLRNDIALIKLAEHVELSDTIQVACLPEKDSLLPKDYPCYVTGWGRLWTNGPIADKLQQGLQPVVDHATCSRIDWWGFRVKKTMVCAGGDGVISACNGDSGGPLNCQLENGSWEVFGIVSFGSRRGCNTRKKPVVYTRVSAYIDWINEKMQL

[5] = target: Nitric oxide synthase, inducible (Homo sapiens) (UniProt P35228); assay: Inhibitory activity against Inducible nitric oxide synthase
Chain of Nitric oxide synthase, inducible (Homo sapiens) (P35228 whole entry): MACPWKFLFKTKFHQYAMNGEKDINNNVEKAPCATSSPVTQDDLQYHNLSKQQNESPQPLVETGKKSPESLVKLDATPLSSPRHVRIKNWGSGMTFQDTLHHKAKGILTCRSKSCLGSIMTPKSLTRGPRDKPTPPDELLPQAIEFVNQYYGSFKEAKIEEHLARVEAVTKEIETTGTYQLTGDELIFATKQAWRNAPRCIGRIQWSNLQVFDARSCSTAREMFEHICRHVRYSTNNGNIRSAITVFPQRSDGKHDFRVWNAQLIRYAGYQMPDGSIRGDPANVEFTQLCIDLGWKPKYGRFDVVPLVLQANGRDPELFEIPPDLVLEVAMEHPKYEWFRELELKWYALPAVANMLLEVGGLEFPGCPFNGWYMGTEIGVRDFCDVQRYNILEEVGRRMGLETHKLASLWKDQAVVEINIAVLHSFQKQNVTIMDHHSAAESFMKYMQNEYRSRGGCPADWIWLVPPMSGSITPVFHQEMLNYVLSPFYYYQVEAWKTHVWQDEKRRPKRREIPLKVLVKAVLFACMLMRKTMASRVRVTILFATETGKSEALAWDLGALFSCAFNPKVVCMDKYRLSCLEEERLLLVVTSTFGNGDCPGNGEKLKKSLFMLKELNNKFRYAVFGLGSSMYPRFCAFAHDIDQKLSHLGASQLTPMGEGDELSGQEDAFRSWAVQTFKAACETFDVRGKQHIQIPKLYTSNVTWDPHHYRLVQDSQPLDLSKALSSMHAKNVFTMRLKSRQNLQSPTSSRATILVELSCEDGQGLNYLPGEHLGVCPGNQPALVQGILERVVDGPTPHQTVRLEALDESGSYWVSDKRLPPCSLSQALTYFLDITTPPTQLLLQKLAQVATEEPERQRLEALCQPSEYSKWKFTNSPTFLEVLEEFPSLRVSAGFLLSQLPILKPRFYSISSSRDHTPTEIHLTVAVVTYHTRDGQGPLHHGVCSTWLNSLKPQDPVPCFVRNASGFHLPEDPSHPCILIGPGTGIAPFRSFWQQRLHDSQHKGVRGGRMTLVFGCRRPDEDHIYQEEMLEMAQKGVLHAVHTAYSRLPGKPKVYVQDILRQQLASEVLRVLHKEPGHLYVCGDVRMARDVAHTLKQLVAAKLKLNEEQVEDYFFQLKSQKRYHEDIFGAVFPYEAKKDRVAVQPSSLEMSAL

[6] = target: Nitric oxide synthase 1 (Homo sapiens) (UniProt P29475); assay: Inhibitory activity against Neuronal nitric oxide synthase
Chain of Nitric oxide synthase 1 (Homo sapiens) (P29475 whole entry): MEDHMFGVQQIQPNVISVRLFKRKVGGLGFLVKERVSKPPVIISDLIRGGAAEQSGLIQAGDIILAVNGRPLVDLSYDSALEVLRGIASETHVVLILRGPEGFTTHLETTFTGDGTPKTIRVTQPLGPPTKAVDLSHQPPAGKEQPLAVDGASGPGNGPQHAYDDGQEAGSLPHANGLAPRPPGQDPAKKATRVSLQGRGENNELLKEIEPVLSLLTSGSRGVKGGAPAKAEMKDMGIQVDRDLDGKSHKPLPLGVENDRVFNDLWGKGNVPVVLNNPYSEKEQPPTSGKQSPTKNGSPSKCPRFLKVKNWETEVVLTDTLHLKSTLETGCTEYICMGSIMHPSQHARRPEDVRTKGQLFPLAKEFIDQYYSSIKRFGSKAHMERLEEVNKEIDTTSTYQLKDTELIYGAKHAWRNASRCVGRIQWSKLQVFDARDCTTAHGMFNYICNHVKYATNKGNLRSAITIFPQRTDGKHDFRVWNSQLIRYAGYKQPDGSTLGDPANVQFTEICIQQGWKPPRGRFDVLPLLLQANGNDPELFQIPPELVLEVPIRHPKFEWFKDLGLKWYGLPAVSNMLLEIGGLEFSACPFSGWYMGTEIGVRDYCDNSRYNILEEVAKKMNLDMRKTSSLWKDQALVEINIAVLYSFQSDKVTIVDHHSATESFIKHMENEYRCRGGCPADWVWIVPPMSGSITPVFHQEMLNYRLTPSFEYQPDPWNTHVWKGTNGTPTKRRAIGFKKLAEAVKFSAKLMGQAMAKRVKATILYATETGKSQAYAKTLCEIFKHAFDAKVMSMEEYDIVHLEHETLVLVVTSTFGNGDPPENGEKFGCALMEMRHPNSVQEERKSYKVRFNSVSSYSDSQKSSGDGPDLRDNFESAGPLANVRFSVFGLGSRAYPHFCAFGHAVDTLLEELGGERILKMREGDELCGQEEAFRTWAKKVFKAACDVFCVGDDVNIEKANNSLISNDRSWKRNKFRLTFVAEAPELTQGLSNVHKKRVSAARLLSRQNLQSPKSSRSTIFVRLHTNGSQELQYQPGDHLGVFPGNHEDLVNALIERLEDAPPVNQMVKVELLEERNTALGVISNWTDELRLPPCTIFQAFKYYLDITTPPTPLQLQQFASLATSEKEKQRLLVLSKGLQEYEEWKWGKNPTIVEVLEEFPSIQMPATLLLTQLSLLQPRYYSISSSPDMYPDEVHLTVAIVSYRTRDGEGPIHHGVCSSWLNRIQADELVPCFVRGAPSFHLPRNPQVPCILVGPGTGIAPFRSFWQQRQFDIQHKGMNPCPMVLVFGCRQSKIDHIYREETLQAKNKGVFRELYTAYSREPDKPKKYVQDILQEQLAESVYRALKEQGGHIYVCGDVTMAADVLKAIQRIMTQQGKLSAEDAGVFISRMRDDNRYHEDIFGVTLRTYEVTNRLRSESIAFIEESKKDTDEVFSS

[7] = target: Human immunodeficiency virus type 1 protease (Human immunodeficiency virus 1) (UniProt Q72874); assay: Effective dose against protease of human immunodeficiency virus type 1
[8] = target: Human immunodeficiency virus type 1 protease (Human immunodeficiency virus 1) (UniProt Q72874); assay: Initial effective dose against protease of human immunodeficiency virus type 1

Structure (SMILES): Cc1ccc2oc(=O)c3cc(N)ccc3c2c1
- pIC50 [1]: < 4.00
- pIC50 [2]: ~4.00
- Inhibition [3]: 600 µM
- IC50 [4]: Inactive
- Inhibition [5]: 150 µM
- Inhibition [6]: 900 µM

Structure (SMILES): Cc1ccc2oc(=O)c3cc([N+](=O)[O-])ccc3c2c1
- pIC50 [1]: < 4.00
- pIC50 [2]: 4.30

Structure (SMILES): O=[N+]([O-])c1cccc2cn[nH]c12
- Inhibition [3]: 8 µM
- Inhibition [5]: 15 µM
- Inhibition [6]: 15 µM

Structure (SMILES): Nc1ccc2c(c1)c(=O)oc1ccc(CBr)cc12
- pIC50 [1]: < 4.00 and ~4.00
- pIC50 [2]: 4.30
- Inhibition [3]: 120 µM
- Inhibition [5]: 110 µM
- Inhibition [6]: 200 µM

Structure (SMILES): O=c1oc2ccc(CBr)cc2c2ccc([N+](=O)[O-])cc12
- pIC50 [1]: < 4.00
- pIC50 [2]: 5.00
- Inhibition [3]: 120 µM
- Inhibition [5]: 60 µM
- Inhibition [6]: 250 µM

Structure (SMILES): CCC[C@@]1(CCc2ccccc2)CC(O)=C([C@H](CC)c2cccc(NS(=O)(=O)c3ccc(C(F)(F)F)cn3)c2)C(=O)O1
- ED90 [7]: 0.1 µM
- ED50 [8]: 300 µM
